Reference: patent publication US8211631B2, “In vitro model of spinal muscular atrophy” (Wisconsin Alumni Research Foundation, priority 2008, dated 2012)
“Also recorded” adds a separate entry of the source.

Key:
Format in all cases: cell-based, human
iPS-SMA cells = test: Nuclear gem localization (SMN immunostaining) in iPS-SMA-derived neurons and astrocytes after drug treatment; conditions: 1 mM valproic acid or tobramycin; 2 days of drug treatment; gems counted in 100 nuclei; P<0.05, ANOVA
Protocol: (§1) Immunocytochemistry. Cells were fixed in 4% paraformaldehyde or 1:1 acetone/methanol for 20 min at room temperature and rinsed with PBS. Nonspecific labeling was blocked and the cells were permeabilized with 5% normal goat serum and/or 5% normal donkey serum containing 0.2% Triton X-100 in PBS for 30 min at room temperature. Cells were rinsed with PBS and then incubated with primary antibodies for 1 h at room temperature or overnight at 4° C. Cells were then labeled with the appropriate fluorescently tagged secondary antibodies. Hoechst nuclear dye was used to label nuclei. Gems were counted in 100 nuclei, and positively stained neurons were counted and measured on five areas on each of three coverslips using Metamorph software. All data were analyzed using Prizm statistical software.
(§2) Finally, we assessed whether SMN-inducing compounds could increase SMN levels in the iPS-SMA cellular context because this would be an important proof-of-principle for the further development of drug screens. […] We are at present assessing gem formation in differentiating motor neurons and have shown that they can indeed be detected (FIG. 14A, B).

iPS-WT cells = test: Nuclear gem localization (SMN immunostaining) in iPS-WT-derived neurons and astrocytes after drug treatment; conditions: 1 mM valproic acid or tobramycin; 2 days of drug treatment
Protocol: as §1, §2

[1] = tested on: SMN protein in iPS-SMA cells; test: Western blot analysis of SMN protein in drug-treated iPS-SMA cells; conditions: corrected to beta-actin, two days after drug treatment, 1 mM valproic acid or tobramycin, n=3
Protocol: Protein isolation and western blot analysis. Cells were isolated, suspended in 1% Triton X-100 lysis buffer supplemented with 1% protease inhibitor cocktail (Sigma), triturated and centrifuged at 16,060 g for 10 min at 4° C. Ten to twenty micrograms of protein was separated on 12% SDS-polyacrylamide gel, transferred to a nitrocellulose membrane and probed with a primary antibody against SMN (mouse monoclonal), followed by a horseradish-peroxidase-conjugated secondary antibody (Promega), and then visualized using ECL chemiluminescence (Amersham). As a control, the membrane was stripped and re-probed for beta-actin. For semiquantitative analysis, SMN signal intensity was analyzed and corrected with respect to beta-actin.
as §2, with “screens. SMN protein is found in both the cytoplasm and nuclear aggregate structures called gems, and the number of gems present is inversely correlated to disease severity (Coovert, D. D. et al. The survival motor neuron protein in spinal muscular atrophy, Hum. Mol. Genet. 6, 1205-1214, 1997).” for “screens.”

Structure (SMILES)	number of gems in treated compared to untreated iPS-SMA cells (iPS-SMA cells)	gem localization in treated compared to untreated iPS-WT cells (iPS-WT cells)	increase in SMN protein levels compared to untreated iPS-SMA cells [1] [fold]
CCCC(CCC)C(=O)O [valproic acid]	significant increase in the number of gems; also recorded: significantly increased the number of gems	no significant increase in gem localization	2
NC[C@H]1O[C@H](O[C@H]2[C@H](O)[C@@H](O[C@H]3O[C@H](CO)[C@@H](O)[C@H](N)[C@H]3O)[C@H](N)C[C@@H]2N)[C@H](N)C[C@@H]1O [tobramycin]	significant increase in the number of gems; also recorded: significantly increased the number of gems	no significant increase in gem localization	3
